Columns and labels:
[1] = Cell viability assay in differentiated neuronal cells (MTT), SHSY5Y; format: cell-based; settings: human, read-out: % Cell viability ± SD, SHSY5Y
Excerpt: (§1) In the present disclosure outlined herein, a focused library of cannabidiol analogues were studied for possible neuro-protective potential employing cell line-based stress model systems which mimic the biological stress conditions in vitro (J Cell Biochem., 2018, 119(8), 6482-6491).
(§2) Human neuroblastoma cells (SHSY5Y) and mouse neuroblastoma cells (N2A) were procured from American Type Culture Collection (ATCC). SHSY5Y cell cultures were maintained in DMEM F12 (Invitrogen) whereas N2A were cultured in DMEM (Invitrogen) with 10% Fetal Bovine Serum (Gibco) medium, subjected to differentiation to acquire neuronal morphology (employing differentiation media DMEM-F12, 3-5% FBS, (For differentiation, low concentration of FBS was used) and 50 μM retinoic acid). Differentiated cells were later seeded into 96 well plates, at a density of 1×10^4 before being incubated for 48 hrs with the synthesized library. The exhausted culture media was substituted with new culture media containing 0.5 mg/ml MTT dye. Eventually, the OD at 490 nm excitation was measured using a 96-well plate reader. The proportion of viable cells was determined as percentage of absorbance of untreated cultures relative to control.

[2] = Cell viability assay in macrophage RAW264.7 cells (MTT); format: cell-based; settings: mouse, read-out: % cell viability ± SD; for viability at 24 h, 5 µM: RAW264.7, 5 μM; for viability at 24 h, 10 µM: RAW264.7, 10 μM
Procedure: RAW264.7 cells were seeded in 96-well cell culture plates at a density of 1×10^4 cells per well and incubated overnight at 37° C. with 5% CO2. Next day, the cells were treated with CBD or its derivatives at 5 μM and/or 10 μM concentration for 24 hrs. The MTT dye (2.5 mg/ml, 20 μL) was added to each well 4 hrs before termination (Molecules. 2022, 27, 8068). After 4 hrs of incubation with MTT, the supernatant was discarded, and the formazan crystals were dissolved by adding 100 μL DMSO. The absorbance was recorded at 540 nm on microplate reader (Tecan Infinite Pro).

[3] = Cell viability assay in differentiated neuronal cells (MTT), N2A; format: cell-based; settings: mouse, read-out: % Cell viability ± SD, N2A
Excerpt: as §1, §2

[4] = test system: nitric oxide (NO) production in RAW264.7 macrophages; test: In vitro anti-inflammatory activity: nitric oxide production (Griess) in LPS-exposed RAW264.7 macrophages; format: cell-based, mouse; settings: for inhibition at 5 µM / inhibition at 10 µM: Mus musculus, RAW264.7, read-out: % NO Inhibition ± SD; for inhibition at 5 µM / inhibition at 10 µM / % NO inhibition: LPS 24 hrs; for % NO inhibition: concentration not given
Procedure: Measurement of Nitric oxide: RAW264.7 macrophages were seeded in 96-well plates with a density of 0.5×10^5 cells/well and incubated overnight at 37° C. in a 5% CO2 atmosphere. The cells were treated with different concentration of CBD and its analogues and exposed to LPS for 24 hrs. For nitric oxide (NO) determination, the cell culture supernatant was taken and mixed with equal volume of Griess reagent in another 96 well plate at room temperature (Biomed Pharmacother., 2017, 92, 175-186). The absorbance was measured at 540 nm. The final calculations were determined on a NaNO2 standard curve.

Compound	viability at 48 h, 20 µM [1] [%]	viability at 24 h, 5 µM [2] [%]	viability at 24 h, 10 µM [2] [%]	viability at 48 h, 20 µM [3] [%]	inhibition at 5 µM [4] [%]	inhibition at 10 µM [4] [%]	% NO inhibition [4]	% NO Inhibition ± SD ([4]; LPS alone 1 μg/ml (0% reference)) [%]
C=C(C)[C@@H]1CCC(C)=C[C@H]1c1c(O)c(CN2CCOCC2)c(CCCCC)c(CN2CCOCC2)c1O [A1′, 2′,4′-{bis-(morpholin-1-ylmethyl)}-cannabidiol]	93.6 ± 2.01	94.4 ± 0.9	92.4 ± 1.2	94.7 ± 1.86	15.6 ± 2.5	23.4 ± 3.8	greater than 20%	
C=C(C)[C@@H]1CCC(C)=C[C@H]1c1c(O)cc(CCCCC)c(CN2CCCCC2)c1O [A2, 2′-(piperidin-1-ylmethyl)-cannabidiol]	95.8 ± 1.1	65.9 ± 6.5	61.7 ± 8.1	96.9 ± 3.77				
C=C(C)[C@@H]1CCC(C)=C[C@H]1c1c(O)cc(CCCCC)c(CN2CCC(C(C)C)CC2)c1O [A3, 2′-{(4-isopropylpiperidin-1-yl)methyl}-cannabidiol]	103 ± 2.25	92.8 ± 0.9	89.9 ± 1.2	99.7 ± 0.42	4.9 ± 1.4	10.7 ± 2.1		
C=C(C)[C@@H]1CCC(C)=C[C@H]1c1c(O)cc(CCCCC)c(CN2CCC(O)CC2)c1O [A4, 2′-{(4-hydroxypiperidin-1-yl)methyl}-cannabidiol]	97.28 ± 0.54	93.8 ± 1.14	90.6 ± 0.7	97.71 ± 0.81	11.4 ± 2.9	20.8 ± 2.5	greater than 20%	
C=C(C)[C@@H]1CCC(C)=C[C@H]1c1c(O)cc(CCCCC)c(CN2CCC(c3ccccc3)CC2)c1O [A5, 2′-{(4-phenylpiperidin-1-yl)methyl}-cannabidiol]	94.5 ± 1.12	94.4 ± 1.3	90.4 ± 0.9	90.6 ± 1.85	5.8 ± 2.4	12.3 ± 3.1		
C=C(C)[C@@H]1CCC(C)=C[C@H]1c1c(O)cc(CCCCC)c(CN2CCC(C(F)(F)F)CC2)c1O [A6, 2′-[{4-(trifluoromethyl)piperidin-1-yl}methyl]-cannabidiol]	27 ± 2.02	94.1 ± 1.8	92 ± 1.1	25.3 ± 1.47	7.6 ± 3	11.8 ± 1.9		
C=C(C)[C@@H]1CCC(C)=C[C@H]1c1c(O)cc(CCCCC)c(CN2CCC(Cc3ccccc3)CC2)c1O [A7, 2′-{(4-benzylpiperidin-1-yl)methyl}-cannabidiol]	102 ± 1.57	90.1 ± 1.3	93 ± 1.7	101.7 ± 0.47	8.4 ± 3.1	16 ± 1.2		
C=C(C)[C@@H]1CCC(C)=C[C@H]1c1c(O)cc(CCCCC)c(CN2CCN(C)CC2)c1O [A8, 2′-{(4-methylpiperazin-1-yl)methyl}-cannabidiol]	89.4 ± 1.7	94.7 ± 2.7	87.1 ± 1.9	93.3 ± 0.39	10.7 ± 2.3	19.6 ± 3.2		
C=C(C)[C@@H]1CCC(C)=C[C@H]1c1c(O)cc(CCCCC)c(CN2CCN(CC)CC2)c1O [A9, 2′-{(4-ethylpiperazin-1-yl)methyl}-cannabidiol]	91.67 ± 0.56	94.2 ± 2.1	87.6 ± 0.1	94.3 ± 1.3	14.6 ± 3.3	27.9 ± 0.4	more than 25%	
C=C(C)[C@@H]1CCC(C)=C[C@H]1c1c(O)cc(CCCCC)c(CN2CCN(CCO)CC2)c1O [A10, 2′-[{4-(2-hydroxyethyl)piperazin-1-yl}methyl]-cannabidiol]	98.1 ± 2.25	97.5 ± 1.7	95 ± 2.6	96 ± 2.17	48.9	68.3		
C=C(C)[C@@H]1CCC(C)=C[C@H]1c1c(O)cc(CCCCC)c(CN2CCN(C(C)=O)CC2)c1O [A11, 2′-[{4-(piperazin-1-yl)ethan-1-one}methyl]-cannabidiol]	101 ± 3.48	93.3 ± 0.4	91.6 ± 0.2	102 ± 1.53	15.6 ± 1.7	31.4 ± 3.6	more than 25%	
C=C(C)[C@@H]1CCC(C)=C[C@H]1c1c(O)cc(CCCCC)c(CN2CCN(c3ccccc3)CC2)c1O [A12, 2′-{(4-phenylpiperazin-1-yl)methyl}-cannabidiol]	95.9 ± 3.39	94.5 ± 1	92.7 ± 0.5	96.2 ± 2.32	8.6 ± 0.93	11.4 ± 3.5		
C=C(C)[C@@H]1CCC(C)=C[C@H]1c1c(O)cc(CCCCC)c(CN2CCN(C3CC3)CC2)c1O [A13, 2′-{(4-cyclopropylpiperazin-1-yl)methyl}-cannabidiol]	96.2 ± 4.87	89.3 ± 2	93.9 ± 4.3	97.2 ± 3.51	12 ± 1.7	27.3 ± 2.6	more than 25%	
C=C(C)[C@@H]1CCC(C)=C[C@H]1c1c(O)cc(CCCCC)c(CN2CCN(c3ccc(Cl)cc3)CC2)c1O [A14, 2′-[{4-(4-chlorophenyl)piperazine}methyl]-cannabidiol]	90.5 ± 0.14	95.2 ± 0.7	89.8 ± 1.1	95.9 ± 4.04	8.5 ± 1.7	14.2 ± 3.8		
C=C(C)[C@@H]1CCC(C)=C[C@H]1c1c(O)cc(CCCCC)c(CN2CCN(c3ncccn3)CC2)c1O [A15, 2′-[{4-(pyrimidin-2-yl)piperazin-1-yl}methyl]-cannabidiol]	81.8 ± 1.17	93.4 ± 1.1	89.9 ± 0.9	85.2 ± 1.25	4.8 ± 0.02	14.5 ± 0.6		
C=C(C)[C@@H]1CCC(C)=C[C@H]1c1c(O)cc(CCCCC)c(CNc2cnccn2)c1O [A16, 2′-{(pyrazin-2-ylamino)methyl}-cannabidiol]	86.97 ± 0.12	93.6 ± 1.3	87.7 ± 0.8	89.85 ± 0.03	11.5 ± 1.2	18.3 ± 1		
Lipopolysaccharide [LPS, reference compound]								0
